The text below walks through data of publication PMC6504641 (Chembiochem : a European journal of chemical biology, 2018).

In this experiment the target is BRAF (Homo sapiens, UniProt P15056). Kind of experiment: ELISA kinase assay, phospho-MEK1 readout. In kind it is biochemical. Background: ELISA stands for enzyme-linked immunosorbent assay.

Molecules are shown by their SMILES.

BRAF, sequence (P15056 whole entry): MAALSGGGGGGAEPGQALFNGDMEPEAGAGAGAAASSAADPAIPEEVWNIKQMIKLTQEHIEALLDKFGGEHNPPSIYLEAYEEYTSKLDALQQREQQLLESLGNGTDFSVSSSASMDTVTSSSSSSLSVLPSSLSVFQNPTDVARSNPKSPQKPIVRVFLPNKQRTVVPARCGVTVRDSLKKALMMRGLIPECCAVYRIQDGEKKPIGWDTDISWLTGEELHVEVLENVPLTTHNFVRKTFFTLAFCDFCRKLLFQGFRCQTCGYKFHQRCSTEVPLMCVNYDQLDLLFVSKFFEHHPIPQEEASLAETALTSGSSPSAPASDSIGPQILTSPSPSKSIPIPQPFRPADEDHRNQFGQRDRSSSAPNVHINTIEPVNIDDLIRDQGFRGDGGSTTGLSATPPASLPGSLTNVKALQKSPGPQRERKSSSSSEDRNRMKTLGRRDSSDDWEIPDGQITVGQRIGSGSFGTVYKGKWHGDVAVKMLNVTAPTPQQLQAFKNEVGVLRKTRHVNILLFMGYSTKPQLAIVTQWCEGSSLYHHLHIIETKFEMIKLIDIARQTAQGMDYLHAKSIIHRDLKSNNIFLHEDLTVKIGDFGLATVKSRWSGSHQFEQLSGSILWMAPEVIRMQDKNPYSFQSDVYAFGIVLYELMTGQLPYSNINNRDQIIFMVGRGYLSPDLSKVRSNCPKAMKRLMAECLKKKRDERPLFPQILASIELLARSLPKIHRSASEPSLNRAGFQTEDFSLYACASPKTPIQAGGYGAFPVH

Take `N#Cc1c(Oc2ccc(F)c(NC(=O)Cc3cccc(C(F)(F)F)c3)c2)ccc2nc(NC(=O)C3CC3)sc12` [TAK-632]: the IC50 (commonly the concentration that gives 50% inhibition) stood at 0.7 nM.
